One data set relates to C57BL/6J mice. Nature of the data set: Wound healing assay (full-thickness punch-biopsy wounds). Type of data set: in vivo, mouse. The settings on record: for closure difference between KU-60019-treated and DMSO-treated wounds: day 7; for mean wound closure: day 7, topical 5 μM in 30% Pluronic gel daily. The method, then: To further test whether ATMi can promote cutaneous wounding healing in young (3 months old) and old (19 months old) male mice (C57BL/6J mice), four full-thickness punch-biopsy wounds (8 mm in diameter) were created on the dorsal skin of mouse (5 mice/experimental group), drug at a concentration of 5 μM KU-60019 in 30% Pluronic gel (Pluronic F-127 Sigma, P2443-1 KG) 0.5 mL was applied to wounds every day, and then covered the wounds with Telfa sponges (Kendall Health Care, Mansfield, Mass., USA). All animal studies were reviewed and approved by the […] Animal Care and Use Committee of SKKU School of Medicine (SUSM). SUSM is an Association for Assessment and Accreditation of Laboratory Animal Care international accredited facility and abides by the Institute for Laboratory Animal Research guide. Wounds were photographed for 10 days. Immunohistochemistry analyses were performed on 5 μm paraffin embedded sections as described previously (Lin et. al., 2004. Developmental Biology 270, 474-486). Primary antibodies used for immunohistochemistry were mouse anti-α-smooth muscle actin (Sigma, F3777-2ML, 1:500), and mouse anti-PCNA (Santa Cruz Biotechnology, SC-56, 1:500). Secondary antibodies used for immunohistochemistry were EnVision™ Detection System (DAKO, K5007). Masson-Trichrome staining was performed according to the manufacturer's instructions (Polysciences Inc., Warrington Pa., USA).
To further test whether KU-60019 can promote cutaneous wounding healing in young (3 months old) and old (19 months old) mice, we created full-thickness punch-biopsy wounds 8 mm in diameter on the dorsal skin of 10 mice (5 mice/each group), applied to the wounds at a concentration of 5 μM KU-60019 in 30% Pluronic gel (Pluronic F-127 Sigma, P2443-1 KG), and then covered the wounds with Telfa sponges (Kendall Health Care, Mansfield, Mass., USA). Pluronic F-127 is a hydrogel widely used in pharmaceuticals as a drug delivery vehicle for a variety of soluble mediators, including antibodies, cytokines, and growth factors. […] Only 13.5% closure difference was shown between KU-60019-treated and DMSO-treated wounds. […] 20% closure difference was shown between KU-60019-treated and DMSO-treated wounds. […] KU-60019-treated wounds are capable of complete and efficient closure.

Data set [1] deals with senescent fibroblasts (passage 37). Nature of the data set: Soft agar assay for abnormal (cancer-like) proliferation. Type of data set: cell-based, human. The settings on record: 0.5 μM, 4 weeks; 293T cells formed colonies. The method, then: In addition, to confirm whether the cells proliferated by the culture proliferate abnormally, for example, proliferate like cancer cells, a soft agar assay was carried out. First, the DMEM medium containing 10% FBS was mixed with a 1.6% agar medium at a ratio of 1:1, so as to prepare a medium containing 0.8% agar formulation to coat the bottom of each well of a 6-well plate. […] As a control group, a 293T cell line (ATCC® CRL-11268™) from human embryonic kidney was used. […] The same procedure applies similarly to the remaining images b, c, and d. In FIG. 3, HDF M11 p37 refers to a human dermal fibroblast M11 strain, which is a sub-cultured fibroblast (passage 37). In FIG. 3, KU-60019-KU-60019 refers to a process of continuously adding KU-60019 to a medium and culturing for 28 days; KU-60019-DMSO refers to a process of adding KU-60019 to a medium and culturing for 14 days, removing KU-60019, and then, culturing the cells in the absence of KU-60019 for another 14 days; DMSO-DMSO refers to a condition where KU-60019 is not added at all and the cells cultured for 28 days. The 293T cells were cultured under the same condition as DMSO-DMSO, and then, applied to the soft agar assay.

Data set [2] has the same test system. Nature of the data set: Cell proliferation and formation of cell colonies (crystal violet staining). The settings on record: among 0.1, 0.5 and 2 μM. The class given is cell-based, human. The method, then: A human fibroblast cell line was inoculated into a Dulbecco's Modified Eagle's medium (DMEM) containing 10% fetal bovine serum (FBS), 100 units/ml of penicillin, and 100 μg/ml of streptomycin (wherein these two antibiotics were purchased from Gibro-BRL, Grand Island, N.Y.), and then, cultured in a 5% CO2 incubator at a temperature of 37° C. The fibroblast cell line (i.e., M11 strain) was a cell line derived from the foreskin of a child. When the cells were grown to about 85% confluency in a plate, the cells were subjected to subculture. The early subculture was carried out at a split ratio of 1:4, and the late subculture was carried out at a split ratio of 1:2. When the cell doubling time was 14 days, the cells were considered to be senescent fibroblasts (passages 35 to 37).
To determine the optimal concentration upon the treatment with an ATM-kinase inhibitor KU-60019 (SELLECKCHEM, S1570, salt), the senescent fibroblasts (passage 37) were inoculated into each well of a 6-well plate at a concentration of 2,000 cells/well, and then, KU-60019 was added to each well of the 6-well plate ([…]). In addition, as a negative control group, the cells were cultured under the same conditions as described above, except that a medium used herein contained a dimethyl sulfoxide (DMSO) (0.05 (v/v) %) medium. […]

The values that follow come from patent US9770451B2, “Composition including ATM inhibitor for reducing cellular senescence and use of the composition” (Samsung Electronics Co., Ltd., priority 2014, dated 2017).

`C[C@@H]1CN(CC(=O)Nc2ccc3c(c2)Cc2cccc(-c4cc(=O)cc(N5CCOCC5)o4)c2S3)C[C@H](C)O1` [KU-60019, 2-((2S,6R)-2,6-dimethylmorpholino)-N-(5-(6-morpholino-4-oxo-4H-pyran-2-yl)-9H-thioxanthen-2-yl)acetamide]: the “closure difference between KU-60019-treated and DMSO-treated wounds” value was 20% in the data set with C57BL/6J mice (old mouse (19 months old)) and 13.5% with C57BL/6J mice (young mouse (3 months old)). The mean wound closure was 69.4% with C57BL/6J mice (old mouse (19 months old), control 49.4%) and 87.6% in the data set on C57BL/6J mice (young mouse (3 months old), control 74.1%). Moreover, in data set [1], the “colony formation in soft agar” value is given as “colonies were not formed”. Further, the “most effective concentration selected” value in data set [2] was found to be 0.5 µM.
